Measured values reported in patent publication US20230414617A1, “PHARMACEUTICAL COMPOSITION COMPRISING ACID-BASE NEUTRALIZATION COMBINATION AND APPLICATION THEREOF” (CHENGDU KUACHANGAOPU MEDICAL TECHNOLOGY CO., LTD., priority 2020, published 2023).
Structures can show the parent of a compound that is named as a salt. Each block holds one compound with its values, some of them ahead of it.

Experiments:
[1] = pH of the study drug aqueous solution; format: physicochemical; conditions: aqueous solution
breast cancer 4T1 cells [2] = experiment: Tumor inhibition, breast cancer 4T1 transplantation tumor (Example 3); format: in vivo, BALB/c mouse; conditions: intratumoral; for Tumor weight (x ± s): 150 μl/mouse, once every 3 days x3, 5th day after end; for Tumor inhibition rate: vs negative control
Description: (§1) In the following examples of the present invention, the co-administration pharmaceutical efficacies of drug A and drug B combination administration was determined by ratio q of actual pharmaceutical efficacy/expected pharmaceutical efficacy according to Zhengjun JIN method, as follows.
(§2) In an experiment, the test animal was a BALB/c mouse, the modeling cells were breast cancer 4T1 cells, and the transplantation tumor was modeled at 1×10^6 cells/mouse under the skin of the animal's right axilla. […] Each group was administered by intratumoral injection once every 3 days for a total of 3 times, each time at an injection dose of 150 μl/mouse. On the 5th day after the administration was ended, the animals were euthanized, and the tumor weight was determined after anatomy to the animals. The tumor inhibition rate was calculated from the negative control group.

breast cancer 4T1 cells [3] = experiment: Tumor inhibition, breast cancer 4T1 transplantation tumor (Example 6); format: in vivo, BALB/c mouse; conditions: intratumoral; for Tumor weight (x ± s): 150 μl/mouse, once every 3 days x3, 5th day after end; for Tumor inhibition rate: vs negative control
Description: as §1
as §2, with “1×10^5” for “1×10^6”, “axilla. Successfully modeled experimental animals (with an average tumor volume of 324 mm^3) were divided into 1 negative control group (group 0) and 9 drug study groups (groups 1-9).” for “axilla.”, “measured” for “determined”

breast cancer 4T1 cells [4] = experiment: Tumor inhibition, breast cancer 4T1 transplantation tumor (Example 8); format: in vivo, BALB/c mouse; conditions: intratumoral, dihydrochloride
Description: as §1
as §2, with “1×10^5” for “1×10^6”, “axilla. Successfully modeled experimental animals (with an average tumor volume of 336 mm^3) were divided into 1 negative control group (group 0) and 16 drug study groups (groups 1-16).” for “axilla.”, “measured” for “determined”

breast cancer 4T1 cells [5] = experiment: Tumor inhibition, breast cancer 4T1 transplantation tumor (Example 4); format: in vivo, BALB/c mice; conditions: intratumoral; for Tumor weight (x ± s): 150 μl/mouse, once every 3 days x3, 5th day after end; for Tumor inhibition rate: vs negative control
Description: as §1
In another experiment, the test animal was BALB/c mice, the modeling cells were breast cancer 4T1 cells, and the transplantation tumor was modeled at 1×10^6 cells/mouse under the skin of the animal's right axilla. Successfully modeled experimental animals (average tumor volume 307 mm^3) were randomly divided into 1 negative control group (group 0) and 13 drug study groups (groups 1-13). […] Each group was administered by intratumoral injection once every 3 days for a total of 3 times, each time at an injection dose of 150 μl/mouse. On the 5th day after the administration was ended, the animals were euthanized, and the tumor weight was measured after anatomy to the animals. The tumor inhibition rate was calculated from the negative control group.

breast cancer 4T1 cells [6] = experiment: Tumor inhibition, breast cancer 4T1 transplantation tumor (Example 5); format: in vivo, BALB/c mouse; conditions: intratumoral; for Tumor weight (x ± s): once every 3 days x3, 5th day after end; for Tumor inhibition rate: vs negative control
Description: as §1
as §2, with “In one” for “In an”, “[…].” for “150 μl/mouse.”, “was measured” for “was determined”

breast cancer 4T1 cells [7] = experiment: Tumor inhibition, breast cancer 4T1 transplantation tumor (Example 7); format: in vivo, BALB/c mouse; conditions: intratumoral
Description: as §1
In an experiment, the test animal was a BALB/c mouse, the modeling cells were breast cancer 4T1 cells, and the transplantation tumor was modeled at 1×10^6 cells/mouse under the skin of the animal's right axilla. […] The negative controls and study drugs were administered intraperitoneally (groups 02, 11 and 15) and intratumorally (other study groups), respectively. All groups were dosed once every 3 days, for a total of 3 times, […], with an injection volume of 150 ul/mouse. On the 5th day after the administration was ended, the animals were euthanized, and the tumor weight was measured after anatomy to the animals. The tumor inhibition rate was calculated from the negative control group.

[8] = tested on: mouse liver cancer Hepa1-6 cells; experiment: Series B: tumor inhibition, Hepa1-6 transplantation tumor in 8-month-old mice (Example 10); format: in vivo; conditions: one intratumoral injection 100 μl/mouse; for r'3d, tumor inhibition rate (tumor volume): day 3; for r'14d, tumor inhibition rate (tumor volume): day 14
Description: The animals in series B were modeled in 8-month-old mice as a middle-aged and elderly patient model, which was not consistent with the commonly used young patient model in terms of tumor formation, tumor histomorphology, and body immunocompetence. […] The model animals were randomly divided into 13 groups. Each group was administered once by intratumoral injection according to the drug grouping in Table 11 with an injection volume of 100 μl/mouse.
The actual/expected ratio […] for short-term drug efficacy and the actual/expected ratio q14d for medium-term drug efficacy were calculated based on the drug efficacies (r′3d, […]) at different times (day 3, day 14), respectively.

[9] = study drugs of Example 3 (Table 5)
[10] = study drugs of Example 6 (Table 8)
[11] = study drugs of Example 4 (Table 6)
[12] = study drugs of Example 5 (Table 7)

Compound: [Na+].[OH-] [5% NaOH, sodium hydroxide]
pH [1, 9]: 14.0 | Tumor weight (x ± s) (breast cancer 4T1 cells [2]): 0.28 ± 0.12 g | Tumor inhibition rate (breast cancer 4T1 cells [2]): 72%

Compound: Cl [5% hydrochloric acid, hydrochloric acid]
pH [1, 10]: 0.1 | Tumor weight (x ± s) (breast cancer 4T1 cells [3]): 0.36 ± 0.14 g | Tumor inhibition rate (breast cancer 4T1 cells [3]): 83%

Compound: C=C[C@H]1C[N@@]2CC[C@H]1C[C@H]2[C@H](O)c1ccnc2ccc(OC)cc12 [5% quinine dihydrochloride, quinine dihydrochloride]
Tumor weight (x ± s) (breast cancer 4T1 cells [4]; 150 μl/mouse, once every 3 days x3, 5th day after end): 1.46 ± 0.21 g | Tumor inhibition rate (breast cancer 4T1 cells [4]; vs negative control): 35%

Compound: O=C([O-])O.[Na+] [5% sodium bicarbonate, sodium bicarbonate]
pH [1, 11]: 8.2 | pH [1, 10]: 8.2 | Tumor weight (x ± s) (breast cancer 4T1 cells [5]): 1.79 ± 0.24 g | Tumor inhibition rate (breast cancer 4T1 cells [5]): 21% | Tumor weight (x ± s) (breast cancer 4T1 cells [3]): 1.57 ± 0.20 g | Tumor inhibition rate (breast cancer 4T1 cells [3]): 25%

Compound: O=C([O-])[O-].[Na+].[Na+] [7% sodium carbonate, sodium carbonate]
pH [1, 11]: 10.8 | Tumor weight (x ± s) (breast cancer 4T1 cells [5]): 1.81 ± 0.21 g | Tumor inhibition rate (breast cancer 4T1 cells [5]): 20%

Compound: CC(=O)[O-].[Na+] [10% sodium acetate, sodium acetate]
pH [1, 12]: 9.3 | Tumor weight (x ± s) (breast cancer 4T1 cells [6]): 1.72 ± 0.23 g | Tumor inhibition rate (breast cancer 4T1 cells [6]): 21%

Compound: O=C([O-])O.[Na+] [10% sodium bicarbonate, sodium bicarbonate]
pH [1, 9]: 8.1 | pH [1, 11]: 8.1 | Tumor weight (x ± s) (breast cancer 4T1 cells [5]): 1.58 ± 0.22 g | Tumor inhibition rate (breast cancer 4T1 cells [5]): 30% | Tumor weight (x ± s) (breast cancer 4T1 cells [2]): 1.65 ± 0.29 g | Tumor inhibition rate (breast cancer 4T1 cells [2]): 32%

Compound: O=C([O-])[O-].[Na+].[Na+] [14% sodium carbonate, sodium carbonate]
pH [1, 11]: 10.8 | Tumor weight (x ± s) (breast cancer 4T1 cells [5]): 1.47 ± 0.24 g | Tumor inhibition rate (breast cancer 4T1 cells [5]): 35%

Compound: CC(=O)O [15% acetic acid, acetic acid]
pH [1, 12]: 2.5 | Tumor weight (x ± s) (breast cancer 4T1 cells [6]): 0.70 ± 0.18 g | Tumor inhibition rate (breast cancer 4T1 cells [6]): 68%

pH [1, 12]: 6.8 | pH ([1]; study drugs of Example 7 (Table 9)): 6.8
Compound: NCC(=O)O [15% glycine, glycine]
Tumor weight (x ± s) (breast cancer 4T1 cells [7]; 150 ul/mouse, once every 3 days x3, 5th day after end): 1.81 ± 0.26 g | Tumor inhibition rate (breast cancer 4T1 cells [7]; vs negative control): 17% | Tumor weight (x ± s) (breast cancer 4T1 cells [6]): 1.81 ± 0.26 g | Tumor inhibition rate (breast cancer 4T1 cells [6]): 17%

Compound: O=C([O-])O.[Na+] [15% sodium bicarbonate, sodium bicarbonate]
pH [1, 10]: 8.1 | Tumor weight (x ± s) (breast cancer 4T1 cells [3]): 1.29 ± 0.24 g | Tumor inhibition rate (breast cancer 4T1 cells [3]): 38%

Compound: CC(=O)O [30% acetic acid, acetic acid]
pH [1, 12]: 2.5 | Tumor weight (x ± s) (breast cancer 4T1 cells [6]): 0.41 ± 0.11 g | Tumor inhibition rate (breast cancer 4T1 cells [6]): 81%

Compound: CC(=O)[O-].[Na+] [30% sodium acetate, sodium acetate]
pH [1, 12]: 9.4 | Tumor weight (x ± s) (breast cancer 4T1 cells [6]): 1.53 ± 0.21 g | Tumor inhibition rate (breast cancer 4T1 cells [6]): 30%

Compound: dextran40 [2.5% dextran40 aqueous solution]
r'3d, tumor inhibition rate (tumor volume) [8]: 4.2% | r'14d, tumor inhibition rate (tumor volume) [8]: 5.3%

Compound: yeast hydroxymethyl glucan
r'3d, tumor inhibition rate (tumor volume) [8]: 4.5% | r'14d, tumor inhibition rate (tumor volume) [8]: 7.8%
